Reference: patent US20260116910A1, “POLYCYCLIC COMPOUNDS AND METHODS THEREOF” (HEPAITECH (BEIJING) BIOPHARMA TECHNOLOGY CO., LTD., priority 2021, published 2026)
pEC50: −log10 of the molar value. Read-outs that look alike come from different tables or passages of the source.

Experiments:
MRGPRX4 = MRGPRX4 (Homo sapiens, UniProt Q96LA9); assay: MRGPRX4 activation, Fluo-8 Ca2+ FLIPR assay in HEK293T cells stably expressing MRGPRX4; assay type: cell-based; set-up: key to MRGPRX4 activation, Average / MRGPRX4 activation, Ave.: fluorescence change dF/F0; conditions: for EC50: MRGPRX4 activation, Ca2+ fluorescence, no activation in tested range reported as III, read-out: Activity (EC50 μM)
Procedure, shortened: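 Cells seeded overnight to >95% confluence, loaded 40-60 min at room temperature with 2 μM Fluo-8 AM, then kept in HHBS. Baseline read 30 s, compound added, signal followed 150 s more.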

human FXR (NR1H4) = molecular target: T1, human FXR (NR1H4) (Homo sapiens, UniProt Q96RI1); assay: Human FXR (NR1H4) agonist assessment, FXRE-NanoLuc reporter in HEK293T cells; assay type: cell-based
T1 sequence (Q96RI1 1-476 isoform Q96RI1-1): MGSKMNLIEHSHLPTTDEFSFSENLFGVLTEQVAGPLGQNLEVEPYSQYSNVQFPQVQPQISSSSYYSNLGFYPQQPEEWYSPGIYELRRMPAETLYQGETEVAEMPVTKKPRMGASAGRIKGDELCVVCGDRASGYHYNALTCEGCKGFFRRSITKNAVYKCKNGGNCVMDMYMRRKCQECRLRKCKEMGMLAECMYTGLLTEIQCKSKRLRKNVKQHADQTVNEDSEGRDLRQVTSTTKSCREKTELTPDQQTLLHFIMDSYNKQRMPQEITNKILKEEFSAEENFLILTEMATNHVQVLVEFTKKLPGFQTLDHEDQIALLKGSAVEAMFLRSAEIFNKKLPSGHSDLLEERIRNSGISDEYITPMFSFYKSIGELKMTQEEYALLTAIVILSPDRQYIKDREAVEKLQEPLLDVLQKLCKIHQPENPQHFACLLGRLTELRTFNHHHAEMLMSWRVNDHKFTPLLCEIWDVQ
Procedure, shortened: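 HEK293T cells stably expressing human FXR with an FXRE-NanoLuc reporter were treated with compounds for 24 hr at 37 °C, with 0.01% DMSO as negative control. Medium was read for luminescence after 5 min with coelenterazine. EC50 was fitted by sigmoid to concentration-response data.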

[1] = FXR activation, HEK293T FXRE-NanoLuc reporter, 24 hr
[2] = FXR activation, HEK293T FXRE-NanoLuc reporter, 24 hr, read-out: EC50

Sequence of MRGPRX4 (Q96LA9 whole entry): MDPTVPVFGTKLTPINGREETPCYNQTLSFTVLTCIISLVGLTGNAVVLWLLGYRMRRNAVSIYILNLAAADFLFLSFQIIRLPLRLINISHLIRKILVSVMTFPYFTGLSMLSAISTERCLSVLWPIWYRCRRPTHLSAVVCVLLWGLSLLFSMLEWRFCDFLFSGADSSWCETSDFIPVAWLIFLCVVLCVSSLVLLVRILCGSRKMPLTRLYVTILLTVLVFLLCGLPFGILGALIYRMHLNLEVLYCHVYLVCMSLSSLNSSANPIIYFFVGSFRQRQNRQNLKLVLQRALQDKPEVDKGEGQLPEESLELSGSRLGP

Structure (SMILES)	MRGPRX4 activation, fluorescence change (dF/F0), Average (MRGPRX4; Conc. (Log[M]) −4)	MRGPRX4 activation, fluorescence change (dF/F0), Average (MRGPRX4; Conc. (Log[M]) −4.5)	MRGPRX4 activation, fluorescence change (dF/F0), Average (MRGPRX4; Conc. (Log[M]) −5)	MRGPRX4 activation, fluorescence change (dF/F0), Average (MRGPRX4; Conc. (Log[M]) −5.5)	MRGPRX4 activation, fluorescence change (dF/F0), Average (MRGPRX4; Conc. (Log[M]) −6)	MRGPRX4 activation, fluorescence change (dF/F0), Average (MRGPRX4; Conc. (Log[M]) −7)	MRGPRX4 activation, fluorescence change (dF/F0), Average (MRGPRX4; Conc. (Log[M]) −8)	MRGPRX4 activation, fluorescence change (dF/F0), Average (MRGPRX4; Conc. (Log[M]) −9)	EC50 (MRGPRX4) [µM]	Efficacy (maximum measured induction of NanoLuc, normalized to CDCA set as 100%) (human FXR (NR1H4); [1])	pEC50 (human FXR (NR1H4); [2])	other results
CC(C[C@@H](C)[C@H]1CC[C@H]2[C@@H]3CC[C@@H]4CCCC[C@]4(C)[C@H]3CC[C@]12C)C(=O)O (stereo partly shown) [2-1]	0.071	−0.014	−0.045	−0.072	−0.095	−0.110	−0.072	−0.091	> 100	C (100%<efficacy <=300%)	< 5.00	–
CC(O)CC[C@@H](C)[C@H]1CC[C@H]2[C@@H]3CC[C@@H]4CCCC[C@]4(C)[C@H]3CC[C@]12C (stereo partly shown) [2-2]	–	–	–	–	–	–	–	–	> 100	C (100%<efficacy <=300%)	< 5.00	–
C[C@H](CCC(=O)O)[C@H]1CC[C@H]2[C@@H]3CC[C@@H]4C[C@@H](O)CC[C@]4(C)[C@H]3C[C@H](O)[C@]12C [RC-5]	0.300	0.228	0.166	0.030	−0.009	−0.017	−0.021	−0.007	–	B (300%<efficacy <=400%)	5.00 to 6.00	–
CC[C@H]1[C@@H](O)[C@@H]2[C@H](CC[C@]3(C)[C@@H]([C@H](C)CCNC(=O)NS(=O)(=O)c4cccs4)CC[C@@H]23)[C@@]2(C)CCCC[C@@H]12 [5-25]	–	–	–	–	–	–	–	–	> 100	C (100%<efficacy <=300%)	5.00 to 6.00	MRGPRX4 activation, Average (MRGPRX4; E3-9, Conc. (Log[M]) −4.0): 0.393; MRGPRX4 activation, Average (MRGPRX4; E3-9, Conc. (Log[M]) −4.5): 0.016; MRGPRX4 activation, Average (MRGPRX4; E3-9, Conc. (Log[M]) −5.0): 0.001; MRGPRX4 activation, Average (MRGPRX4; E3-9, Conc. (Log[M]) −5.4): 0.016; MRGPRX4 activation, Average (MRGPRX4; E3-9, Conc. (Log[M]) −5.9): 0.011; MRGPRX4 activation, Average (MRGPRX4; E3-9, Conc. (Log[M]) −6.4): 0.011; MRGPRX4 activation, Average (MRGPRX4; E3-9, Conc. (Log[M]) −6.9): 0.008; MRGPRX4 activation, Average (MRGPRX4; E3-9, Conc. (Log[M]) −7.3): 0.013; MRGPRX4 activation, Average (MRGPRX4; E3-9, Conc. (Log[M]) −7.8): 0.013; MRGPRX4 activation, Average (MRGPRX4; E3-9, Conc. (Log[M]) −8.3): 0.018
CC[C@H]1[C@@H](OC(=O)c2cccc(I)c2)[C@@H]2[C@H](CC[C@]3(C)[C@@H]([C@H](C)CCC(=O)OC)CC[C@@H]23)[C@@]2(C)CCCC[C@@H]12 [1-5]	0.035	−0.027	−0.045	−0.034	−0.041	−0.027	−0.049	−0.084	50 to 100	D (efficacy <=100%)	< 5.00	–
CC[C@H]1[C@@H](O)[C@@H]2[C@H](CC[C@]3(C)[C@@H]([C@H](C)CCNC(=O)NS(=O)(=O)c4cc(F)ccc4F)CC[C@@H]23)[C@@]2(C)CCCC[C@@H]12 [5-23]	–	–	–	–	–	–	–	–	> 100	A (efficacy >400%)	> 6.00	MRGPRX4 activation, Ave. (MRGPRX4; E3-7, Conc. (Log[M]) −4): −0.027; MRGPRX4 activation, Ave. (MRGPRX4; E3-7, Conc. (Log[M]) −4.5): −0.027; MRGPRX4 activation, Ave. (MRGPRX4; E3-7, Conc. (Log[M]) −5): −0.014; MRGPRX4 activation, Ave. (MRGPRX4; E3-7, Conc. (Log[M]) −5.5): −0.054; MRGPRX4 activation, Ave. (MRGPRX4; E3-7, Conc. (Log[M]) −6): −0.041; MRGPRX4 activation, Ave. (MRGPRX4; E3-7, Conc. (Log[M]) −7): 0.000
CC[C@H]1[C@@H](O)[C@@H]2[C@H](CC[C@]3(C)[C@@H]([C@H](C)CCNC(=O)NS(=O)(=O)c4ccc(C(C)(C)C#N)cc4)CC[C@@H]23)[C@@]2(C)CCCC[C@@H]12 [5-17]	–	0.018	–	–	–	–	–	–	> 100	C (100%<efficacy <=300%)	> 6.00	MRGPRX4 activation, fluorescence change (dF/F0), Average (MRGPRX4; Conc. (Log[M]) −4.0): 0.016; MRGPRX4 activation, fluorescence change (dF/F0), Average (MRGPRX4; Conc. (Log[M]) −5.0): 0.019; MRGPRX4 activation, fluorescence change (dF/F0), Average (MRGPRX4; Conc. (Log[M]) −5.4): 0.016; MRGPRX4 activation, fluorescence change (dF/F0), Average (MRGPRX4; Conc. (Log[M]) −5.9): 0.018; MRGPRX4 activation, fluorescence change (dF/F0), Average (MRGPRX4; Conc. (Log[M]) −6.4): 0.018; MRGPRX4 activation, fluorescence change (dF/F0), Average (MRGPRX4; Conc. (Log[M]) −6.9): 0.011; MRGPRX4 activation, fluorescence change (dF/F0), Average (MRGPRX4; Conc. (Log[M]) −7.3): 0.018; MRGPRX4 activation, fluorescence change (dF/F0), Average (MRGPRX4; Conc. (Log[M]) −7.8): 0.020; MRGPRX4 activation, fluorescence change (dF/F0), Average (MRGPRX4; Conc. (Log[M]) −8.3): 0.013
CC[C@H]1[C@@H](O)[C@@H]2[C@H](CC[C@]3(C)[C@@H]([C@H](C)CCN=C=S)CC[C@@H]23)[C@@]2(C)CCC(F)(F)C[C@@H]12 [11-2]	–	–	–	–	–	–	–	–	–	D (efficacy <=100%)	–	pEC50 (MRGPRX4): < 4.00; MRGPRX4 activation, Average (MRGPRX4; E3-9, Conc. (Log[M]) −4.0): 0.030; MRGPRX4 activation, Average (MRGPRX4; E3-9, Conc. (Log[M]) −4.5): 0.020; MRGPRX4 activation, Average (MRGPRX4; E3-9, Conc. (Log[M]) −5.0): 0.010; MRGPRX4 activation, Average (MRGPRX4; E3-9, Conc. (Log[M]) −5.4): 0.020; MRGPRX4 activation, Average (MRGPRX4; E3-9, Conc. (Log[M]) −5.9): 0.020; MRGPRX4 activation, Average (MRGPRX4; E3-9, Conc. (Log[M]) −6.4): 0.013; MRGPRX4 activation, Average (MRGPRX4; E3-9, Conc. (Log[M]) −6.9): 0.013; MRGPRX4 activation, Average (MRGPRX4; E3-9, Conc. (Log[M]) −7.3): 0.013; MRGPRX4 activation, Average (MRGPRX4; E3-9, Conc. (Log[M]) −7.8): 0.013; MRGPRX4 activation, Average (MRGPRX4; E3-9, Conc. (Log[M]) −8.3): 0.025; pEC50 (human FXR (NR1H4)): < 5.00
COC(=O)CC[C@@H](C)[C@H]1CC[C@H]2[C@@H]3/C(=N\OC(C)(C)C(=O)O)C[C@@H]4C[C@H](OC(C)=O)CC[C@]4(C)[C@H]3CC[C@]12C [1-3]	0.109	0.114	0.047	−0.026	−0.008	0.018	−0.003	0.008	< 50	C (100%<efficacy <=300%)	< 5.00	–
C[C@H](CCC(=O)O)[C@H]1CC[C@H]2[C@@H]3CC[C@@H]4CC(=O)CC[C@]4(C)[C@H]3CC[C@]12C [compound 16]	0.416	0.322	0.130	−0.020	−0.010	0.013	0.012	−0.005	–	C (100%<efficacy <=300%)	–	pEC50 (MRGPRX4): > 4.30; pEC50 (human FXR (NR1H4)): < 5.00
CC[C@H]1[C@@H](O)[C@@H]2[C@H](CC[C@]3(C)[C@@H]([C@H](C)CCNC(=O)NS(=O)(=O)c4ccc(N5CCCCC5)nc4)CC[C@@H]23)[C@@]2(C)CCCC[C@@H]12 [5-30]	–	–	–	–	–	–	–	–	> 100	A (efficacy >400%)	> 6.00	MRGPRX4 activation, Average (MRGPRX4; E3-9, Conc. (Log[M]) −4.0): 0.014; MRGPRX4 activation, Average (MRGPRX4; E3-9, Conc. (Log[M]) −4.5): 0.018; MRGPRX4 activation, Average (MRGPRX4; E3-9, Conc. (Log[M]) −5.0): 0.014; MRGPRX4 activation, Average (MRGPRX4; E3-9, Conc. (Log[M]) −5.4): 0.027; MRGPRX4 activation, Average (MRGPRX4; E3-9, Conc. (Log[M]) −5.9): 0.018; MRGPRX4 activation, Average (MRGPRX4; E3-9, Conc. (Log[M]) −6.4): 0.023; MRGPRX4 activation, Average (MRGPRX4; E3-9, Conc. (Log[M]) −6.9): 0.021; MRGPRX4 activation, Average (MRGPRX4; E3-9, Conc. (Log[M]) −7.3): 0.025; MRGPRX4 activation, Average (MRGPRX4; E3-9, Conc. (Log[M]) −7.8): 0.018; MRGPRX4 activation, Average (MRGPRX4; E3-9, Conc. (Log[M]) −8.3): 0.028
CC[C@H]1[C@@H](O)[C@@H]2[C@H](CC[C@]3(C)[C@@H]([C@H](C)CCO)CC[C@@H]23)[C@@]2(C)CCCC[C@@H]12 [2-5]	–	–	–	–	–	–	–	–	> 100	A (efficacy >400%)	5.00 to 6.00	–
